# What was measured:
# Assay in all cases: KINOMEscan competition binding
# Conditions in all cases: compound 10.0 µM
# CAMK2A (human) = CAMK2A (human) (UniProt Q9UQM7)
# CAMKK1 (human) = CAMKK1 (human) (UniProt Q8N5S9)
# CAMKK2 (human) = CAMKK2 (human) (UniProt Q96RR4)
# CDC42BPG (human) = CDC42BPG (human) (UniProt Q6DT37)
# CDK8 (human) = CDK8 (human) (UniProt P49336)
# CHEK1 (human) = CHEK1 (human) (UniProt O14757)
# CHUK (human) = CHUK (human) (UniProt O15111)
# CLK1 (human) = CLK1 (human) (UniProt P49759)
# CLK2 (human) = CLK2 (human) (UniProt P49760)
# CaMK1 (human) = CaMK1 (human) (UniProt Q14012)
# DCLK1 (human) = DCLK1 (human) (UniProt O15075)
# DCLK1 (human), sequence (O15075 whole entry, looked up): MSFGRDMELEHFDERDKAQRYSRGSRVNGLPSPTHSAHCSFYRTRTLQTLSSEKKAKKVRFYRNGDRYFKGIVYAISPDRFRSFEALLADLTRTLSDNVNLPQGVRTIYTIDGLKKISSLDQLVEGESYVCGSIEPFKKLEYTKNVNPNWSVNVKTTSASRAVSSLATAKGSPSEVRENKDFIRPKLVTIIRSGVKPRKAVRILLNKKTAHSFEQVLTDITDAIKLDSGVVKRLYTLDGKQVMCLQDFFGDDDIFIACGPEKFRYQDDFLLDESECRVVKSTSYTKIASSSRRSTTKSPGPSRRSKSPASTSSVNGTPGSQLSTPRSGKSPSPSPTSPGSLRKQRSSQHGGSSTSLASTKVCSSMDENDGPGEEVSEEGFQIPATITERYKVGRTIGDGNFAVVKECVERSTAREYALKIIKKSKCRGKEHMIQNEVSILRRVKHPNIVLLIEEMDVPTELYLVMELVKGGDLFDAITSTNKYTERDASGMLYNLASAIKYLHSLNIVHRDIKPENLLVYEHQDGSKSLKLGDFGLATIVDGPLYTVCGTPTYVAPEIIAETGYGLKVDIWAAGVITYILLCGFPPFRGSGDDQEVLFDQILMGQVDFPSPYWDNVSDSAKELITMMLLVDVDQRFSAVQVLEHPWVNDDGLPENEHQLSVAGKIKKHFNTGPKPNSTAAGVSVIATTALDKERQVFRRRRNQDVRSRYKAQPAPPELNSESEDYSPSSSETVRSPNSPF
# DYRK2 (human) = DYRK2 (human) (UniProt Q92630)
# [1] = system: EGFR (human), P00533 [T790M/L858R]
# EPHB4 (human) = EPHB4 (human) (UniProt P54760)
# ERBB4 (human) = ERBB4 (human) (UniProt Q15303)
# ERBB4 (human), sequence (Q15303 whole entry, looked up): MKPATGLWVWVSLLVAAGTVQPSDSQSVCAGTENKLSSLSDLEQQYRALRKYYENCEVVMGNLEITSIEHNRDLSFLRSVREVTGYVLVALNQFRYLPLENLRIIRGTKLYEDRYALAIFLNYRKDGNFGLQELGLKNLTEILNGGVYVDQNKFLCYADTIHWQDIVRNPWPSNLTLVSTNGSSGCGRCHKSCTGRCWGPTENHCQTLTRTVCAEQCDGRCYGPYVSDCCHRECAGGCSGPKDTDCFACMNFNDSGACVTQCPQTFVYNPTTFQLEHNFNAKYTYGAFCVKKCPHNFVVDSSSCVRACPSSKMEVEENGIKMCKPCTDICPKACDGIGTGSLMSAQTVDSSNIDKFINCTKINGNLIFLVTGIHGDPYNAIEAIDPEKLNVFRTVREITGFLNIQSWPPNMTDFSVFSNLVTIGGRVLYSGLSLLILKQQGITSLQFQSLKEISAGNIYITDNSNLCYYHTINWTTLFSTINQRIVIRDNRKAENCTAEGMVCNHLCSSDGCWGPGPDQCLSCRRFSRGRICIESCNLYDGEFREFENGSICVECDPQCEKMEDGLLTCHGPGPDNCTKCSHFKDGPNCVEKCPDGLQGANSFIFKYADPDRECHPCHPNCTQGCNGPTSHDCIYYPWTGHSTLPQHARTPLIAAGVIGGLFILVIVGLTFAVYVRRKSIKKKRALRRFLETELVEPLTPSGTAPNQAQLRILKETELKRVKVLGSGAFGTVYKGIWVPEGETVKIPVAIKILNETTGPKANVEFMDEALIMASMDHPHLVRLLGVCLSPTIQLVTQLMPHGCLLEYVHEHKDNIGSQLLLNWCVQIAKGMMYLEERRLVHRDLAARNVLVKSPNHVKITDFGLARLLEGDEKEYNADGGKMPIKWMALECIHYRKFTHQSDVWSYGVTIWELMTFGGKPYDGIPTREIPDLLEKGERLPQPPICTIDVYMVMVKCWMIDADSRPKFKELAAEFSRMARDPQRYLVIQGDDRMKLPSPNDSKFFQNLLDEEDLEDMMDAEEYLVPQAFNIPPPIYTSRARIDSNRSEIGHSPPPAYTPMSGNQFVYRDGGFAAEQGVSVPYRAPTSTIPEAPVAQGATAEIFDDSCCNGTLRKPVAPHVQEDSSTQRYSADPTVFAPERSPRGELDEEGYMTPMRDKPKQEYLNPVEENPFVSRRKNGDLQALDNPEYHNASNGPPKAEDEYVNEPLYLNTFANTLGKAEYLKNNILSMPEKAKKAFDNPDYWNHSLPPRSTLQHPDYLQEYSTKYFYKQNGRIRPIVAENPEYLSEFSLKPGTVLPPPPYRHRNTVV
# FLT4 (human) = FLT4 (human) (UniProt P35916)
# FRK (human) = FRK (human) (UniProt P42685)
# GRK1 (human) = GRK1 (human) (UniProt Q15835)
# IKBKB (human) = IKBKB (human) (UniProt O14920)
# IRAK4 (human) = IRAK4 (human) (UniProt Q9NWZ3)
# [2] = biological target: JAK1 JH1 catalytic (human) (UniProt P23458)
# [3] = biological target: JAK3 JH1 catalytic (human) (UniProt P52333)
# MAP4K1 (human) = MAP4K1 (human) (UniProt Q92918)
# MAPK6 (human) = MAPK6 (human) (UniProt Q16659)
# MYLK (human) = MYLK (human) (UniProt Q15746)
# MYLK (human), sequence (Q15746 whole entry, looked up): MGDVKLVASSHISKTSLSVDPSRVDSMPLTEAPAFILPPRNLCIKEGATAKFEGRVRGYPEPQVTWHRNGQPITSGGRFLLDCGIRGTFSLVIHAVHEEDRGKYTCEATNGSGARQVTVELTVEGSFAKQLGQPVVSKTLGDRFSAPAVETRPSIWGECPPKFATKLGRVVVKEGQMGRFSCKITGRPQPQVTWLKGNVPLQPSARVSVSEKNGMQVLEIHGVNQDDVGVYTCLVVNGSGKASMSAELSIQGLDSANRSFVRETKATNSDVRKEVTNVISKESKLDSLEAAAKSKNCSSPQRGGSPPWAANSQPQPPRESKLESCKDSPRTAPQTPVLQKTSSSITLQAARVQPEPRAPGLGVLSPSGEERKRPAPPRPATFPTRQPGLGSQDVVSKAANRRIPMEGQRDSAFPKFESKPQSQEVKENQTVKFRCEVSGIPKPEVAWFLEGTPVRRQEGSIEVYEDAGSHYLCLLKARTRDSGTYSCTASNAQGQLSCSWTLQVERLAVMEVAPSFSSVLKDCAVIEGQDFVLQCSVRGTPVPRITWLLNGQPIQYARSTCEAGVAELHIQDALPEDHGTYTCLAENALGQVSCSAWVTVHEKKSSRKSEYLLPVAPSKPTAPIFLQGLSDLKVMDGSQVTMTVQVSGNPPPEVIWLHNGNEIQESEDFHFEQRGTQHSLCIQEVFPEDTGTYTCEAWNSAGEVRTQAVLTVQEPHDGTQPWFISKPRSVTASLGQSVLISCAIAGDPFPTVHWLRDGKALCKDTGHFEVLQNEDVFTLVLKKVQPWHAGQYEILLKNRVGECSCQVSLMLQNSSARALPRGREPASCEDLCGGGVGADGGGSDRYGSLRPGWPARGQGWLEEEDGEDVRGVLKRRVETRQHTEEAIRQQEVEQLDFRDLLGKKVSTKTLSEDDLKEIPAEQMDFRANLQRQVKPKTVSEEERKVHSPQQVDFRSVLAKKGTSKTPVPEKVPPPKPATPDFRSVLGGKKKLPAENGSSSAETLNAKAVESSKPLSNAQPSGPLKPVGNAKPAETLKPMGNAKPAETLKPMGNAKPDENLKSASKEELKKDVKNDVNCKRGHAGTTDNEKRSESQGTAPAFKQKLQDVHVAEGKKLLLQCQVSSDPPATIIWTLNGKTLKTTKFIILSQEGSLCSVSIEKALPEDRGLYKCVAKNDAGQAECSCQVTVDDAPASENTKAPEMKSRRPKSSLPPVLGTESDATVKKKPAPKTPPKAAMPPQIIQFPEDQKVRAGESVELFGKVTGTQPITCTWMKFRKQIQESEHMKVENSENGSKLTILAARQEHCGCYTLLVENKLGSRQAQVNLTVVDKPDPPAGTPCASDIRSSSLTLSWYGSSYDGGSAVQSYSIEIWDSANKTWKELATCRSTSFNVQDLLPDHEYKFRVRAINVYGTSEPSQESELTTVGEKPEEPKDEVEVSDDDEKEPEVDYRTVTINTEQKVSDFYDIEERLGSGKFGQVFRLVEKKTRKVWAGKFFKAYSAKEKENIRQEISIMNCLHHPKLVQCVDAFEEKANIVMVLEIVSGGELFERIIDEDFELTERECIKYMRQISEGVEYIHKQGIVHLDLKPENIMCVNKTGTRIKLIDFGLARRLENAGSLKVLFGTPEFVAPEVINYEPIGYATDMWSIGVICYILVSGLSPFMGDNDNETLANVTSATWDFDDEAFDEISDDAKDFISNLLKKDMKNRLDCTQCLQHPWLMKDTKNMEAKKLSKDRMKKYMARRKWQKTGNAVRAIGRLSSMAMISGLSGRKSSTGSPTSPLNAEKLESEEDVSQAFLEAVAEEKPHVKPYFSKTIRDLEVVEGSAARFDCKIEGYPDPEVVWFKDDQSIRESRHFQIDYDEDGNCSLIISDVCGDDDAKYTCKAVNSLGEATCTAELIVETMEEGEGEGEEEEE
# NEK6 (human) = NEK6 (human) (UniProt Q9HC98)
# NLK (human) = NLK (human) (UniProt Q9UBE8)
# NLK (human), sequence (Q9UBE8 whole entry, looked up): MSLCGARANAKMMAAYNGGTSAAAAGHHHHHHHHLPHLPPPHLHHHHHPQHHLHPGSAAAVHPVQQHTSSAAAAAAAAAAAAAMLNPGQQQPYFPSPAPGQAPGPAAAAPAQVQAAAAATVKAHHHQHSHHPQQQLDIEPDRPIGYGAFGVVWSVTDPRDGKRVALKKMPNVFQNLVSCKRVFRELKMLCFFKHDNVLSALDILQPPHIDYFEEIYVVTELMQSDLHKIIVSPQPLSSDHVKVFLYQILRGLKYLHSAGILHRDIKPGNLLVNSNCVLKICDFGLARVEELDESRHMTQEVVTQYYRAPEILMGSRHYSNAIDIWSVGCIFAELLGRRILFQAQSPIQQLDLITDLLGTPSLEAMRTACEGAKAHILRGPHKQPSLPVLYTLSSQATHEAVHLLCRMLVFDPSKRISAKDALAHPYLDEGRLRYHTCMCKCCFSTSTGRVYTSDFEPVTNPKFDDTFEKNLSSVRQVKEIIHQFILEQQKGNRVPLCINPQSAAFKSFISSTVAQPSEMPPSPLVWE
# PAK2 (human) = PAK2 (human) (UniProt Q13177)
# PIM1 (human) = PIM1 (human) (UniProt P11309)
# PIM3 (human) = PIM3 (human) (UniProt Q86V86)
# PLK1 (human) = PLK1 (human) (UniProt P53350)
# PRKAA2 (human) = PRKAA2 (human) (UniProt P54646)
# RPS6KA4 KD2 (human) = RPS6KA4 KD2 (human) (UniProt O75676)
# SBK1 (human) = SBK1 (human) (UniProt Q52WX2)
# STK11 (human) = STK11 (human) (UniProt Q15831)
# STK32A (human) = STK32A (human) (UniProt Q8WU08)
# STK35 (human) = STK35 (human) (UniProt Q8TDR2)
# TAOK1 (human) = TAOK1 (human) (UniProt Q7L7X3)
# TAOK2 (human) = TAOK2 (human) (UniProt Q9UL54)
# TEK (human) = TEK (human) (UniProt Q02763)
# CAMK2A (human), sequence (Q9UQM7 whole entry, looked up): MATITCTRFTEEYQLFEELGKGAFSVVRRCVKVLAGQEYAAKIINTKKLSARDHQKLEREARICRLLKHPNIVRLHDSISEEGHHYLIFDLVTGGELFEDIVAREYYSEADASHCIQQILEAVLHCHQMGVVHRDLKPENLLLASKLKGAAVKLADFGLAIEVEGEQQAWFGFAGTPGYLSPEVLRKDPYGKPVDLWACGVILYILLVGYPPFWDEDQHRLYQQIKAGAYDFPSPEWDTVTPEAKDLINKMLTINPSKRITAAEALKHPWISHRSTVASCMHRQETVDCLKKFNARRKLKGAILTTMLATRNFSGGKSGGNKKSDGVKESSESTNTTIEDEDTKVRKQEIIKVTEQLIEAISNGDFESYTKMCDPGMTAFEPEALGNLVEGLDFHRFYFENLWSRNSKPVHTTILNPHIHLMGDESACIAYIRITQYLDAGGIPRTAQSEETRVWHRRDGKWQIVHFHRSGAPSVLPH
Compound,"kinase still bound, per cent of control (CAMK2A (human)) [%]","kinase still bound, per cent of control (CAMKK1 (human)) [%]","kinase still bound, per cent of control (CAMKK2 (human)) [%]","kinase still bound, per cent of control (CDC42BPG (human)) [%]","kinase still bound, per cent of control (CDK8 (human)) [%]","kinase still bound, per cent of control (CHEK1 (human)) [%]","kinase still bound, per cent of control (CHUK (human)) [%]","kinase still bound, per cent of control (CLK1 (human)) [%]","kinase still bound, per cent of control (CLK2 (human)) [%]","kinase still bound, per cent of control (CaMK1 (human)) [%]","kinase still bound, per cent of control (DCLK1 (human)) [%]","kinase still bound, per cent of control (DYRK2 (human)) [%]","kinase still bound, per cent of control [1] [%]","kinase still bound, per cent of control (EPHB4 (human)) [%]","kinase still bound, per cent of control (ERBB4 (human)) [%]","kinase still bound, per cent of control (FLT4 (human)) [%]","kinase still bound, per cent of control (FRK (human)) [%]","kinase still bound, per cent of control (GRK1 (human)) [%]","kinase still bound, per cent of control (IKBKB (human)) [%]","kinase still bound, per cent of control (IRAK4 (human)) [%]",other results
C=CC(=O)Nc1cc(-n2c(=O)ccc3cnc4ccc(-c5cn[nH]c5)cc4c32)ccc1C,21,59,49,100,93,100,100,0.4,1.6,96,94,0.6,18,100,22,65,99,75,73,36,"kinase still bound, per cent of control [2]: 97%; kinase still bound, per cent of control [3]: 0%; kinase still bound, per cent of control (MAP4K1 (human)): 90%; kinase still bound, per cent of control (MAPK6 (human)): 95%; kinase still bound, per cent of control (MYLK (human)): 70%; kinase still bound, per cent of control (NEK6 (human)): 92%; kinase still bound, per cent of control (NLK (human)): 63%; kinase still bound, per cent of control (PAK2 (human)): 87%; kinase still bound, per cent of control (PIM1 (human)): 70%; kinase still bound, per cent of control (PIM3 (human)): 42%; kinase still bound, per cent of control (PLK1 (human)): 80%; kinase still bound, per cent of control (PRKAA2 (human)): 78%; kinase still bound, per cent of control (RPS6KA4 KD2 (human)): 94%; kinase still bound, per cent of control (SBK1 (human)): 90%; kinase still bound, per cent of control (STK11 (human)): 100%; kinase still bound, per cent of control (STK32A (human)): 100%; kinase still bound, per cent of control (STK35 (human)): 98%; kinase still bound, per cent of control (TAOK1 (human)): 22%; kinase still bound, per cent of control (TAOK2 (human)): 76%; kinase still bound, per cent of control (TEK (human)): 100%"
COc1cc(C(=O)N2CCC(N3CCN(C)CC3)CC2)ccc1Nc1ncc2c(n1)N(C)c1ccccc1C(=O)N2C,21,73,31,100,100,100,100,28,72,55,4.2,76,84,100,100,100,34,91,89,83,"kinase still bound, per cent of control [2]: 100%; kinase still bound, per cent of control [3]: 100%; kinase still bound, per cent of control (MAP4K1 (human)): 100%; kinase still bound, per cent of control (MAPK6 (human)): 100%; kinase still bound, per cent of control (MYLK (human)): 8.7%; kinase still bound, per cent of control (NEK6 (human)): 76%; kinase still bound, per cent of control (NLK (human)): 50%; kinase still bound, per cent of control (PAK2 (human)): 65%; kinase still bound, per cent of control (PIM1 (human)): 100%; kinase still bound, per cent of control (PIM3 (human)): 88%; kinase still bound, per cent of control (PLK1 (human)): 0.7%; kinase still bound, per cent of control (PRKAA2 (human)): 66%; kinase still bound, per cent of control (RPS6KA4 KD2 (human)): 46%; kinase still bound, per cent of control (SBK1 (human)): 100%; kinase still bound, per cent of control (STK11 (human)): 96%; kinase still bound, per cent of control (STK32A (human)): 100%; kinase still bound, per cent of control (STK35 (human)): 100%; kinase still bound, per cent of control (TAOK1 (human)): 28%; kinase still bound, per cent of control (TAOK2 (human)): 65%; kinase still bound, per cent of control (TEK (human)): 100%"
COc1ccc(N(C(=O)Oc2c(C)cccc2C)c2ccnc(Nc3ccc(N4CCN(C)CC4)cc3)n2)c(OC)c1,84,88,56,0.45,100,100,92,84,78,83,84,80,14,0,0.75,16,0,100,93,100,"kinase still bound, per cent of control [2]: 36%; kinase still bound, per cent of control [3]: 0.25%; kinase still bound, per cent of control (MAP4K1 (human)): 0.25%; kinase still bound, per cent of control (MAPK6 (human)): 100%; kinase still bound, per cent of control (MYLK (human)): 100%; kinase still bound, per cent of control (NEK6 (human)): 96%; kinase still bound, per cent of control (NLK (human)): 3.9%; kinase still bound, per cent of control (PAK2 (human)): 58%; kinase still bound, per cent of control (PIM1 (human)): 100%; kinase still bound, per cent of control (PIM3 (human)): 92%; kinase still bound, per cent of control (PLK1 (human)): 100%; kinase still bound, per cent of control (PRKAA2 (human)): 7.9%; kinase still bound, per cent of control (RPS6KA4 KD2 (human)): 100%; kinase still bound, per cent of control (SBK1 (human)): 100%; kinase still bound, per cent of control (STK11 (human)): 60%; kinase still bound, per cent of control (STK32A (human)): 8.2%; kinase still bound, per cent of control (STK35 (human)): 24%; kinase still bound, per cent of control (TAOK1 (human)): 11%; kinase still bound, per cent of control (TAOK2 (human)): 2.4%; kinase still bound, per cent of control (TEK (human)): 0.3%"

# — the kinase profiling compilation of Christmann-Franck et al. (2016)
